Data taken from patent US20240409582A1, “DESIGN AND CHARACTERIZATION OF INHIBITORY PEPTIDES (IPEPS) DERIVED FROM OF MIEN 1 PROTEIN SEQUENCE” (priority 2022, published 2024).
“Also recorded” adds a separate entry of the source.

Legend:
[1] = system: MDA-MB-231 cells; test: RNA-seq transcriptome of MDA-MB-231 cells after peptide treatment; type: cell-based, human; details: MDA-MB-231, RNA-seq
Experimental: RNeasy Mini Kit (Cat #74106, Qiagen,) was used for RNA isolation and all procedures were performed according to the manufacturer's specification. The purification included 15 minutes of in-column DNase I (Cat #79254, Qiagen,) treatment. […] The quality was controlled using Agilent Tapestation and Qubit 4 fluorometer. Sequencing was on an illumina NextSeq 550 system as per the recommended protocol. Raw sequencing files were adapter trimmed and quality filtered using fastp. The reads were mapped to hg38 reference genome using Hisat2. Differential gene expression analysis was performed using Deseq2.

[2] = system: focal adhesion kinase (FAK) phosphorylation at tyrosine 925; test: Western blot, phosphorylation of FAK; type: cell-based, human; details: MDA-MB-231 cell lysates, 48 h
Experimental: (§1) Western blot analysis: MDA-MB-231 cells and DU-145 cells were treated with all the test peptides for 48 h. Cell lysates were prepared, and cellular protein was extracted using RIPA lysis buffer (Millipore). […] After blocking with 5% bovine serum albumin, the membrane was incubated with the primary antibodies specific for various proteins at 4° C. overnight. After primary antibody incubation, membrane was washed thrice in TBS containing 0.1% Tween-20 for 5 min each and then incubated with appropriate HRP-conjugated secondary antibody. The immunoreactive protein bands were visualized by enhanced chemiluminescence (ECL) on Alpha Innotech chemiluminescent detection system.

[3] = system: MDA-MB-231 cells; test: Transwell invasion assay; type: cell-based, human; details: MDA-MB-231, dose-dependent
Experimental: Transwell Invasion Assay: The capacity of human breast cancer MDA-MB-231 cells to pass through a polyethylene terephthalate membrane (6.4 mm diameter; 8 µm pore size) was measured using transwell chambers (Corning Life Sciences) in 24-well tissue culture plates. The MDA-MB-231 were pre-treated with the increasing concentrations of each peptide for 24 h in a 0.1% FBS containing DMEM media. Next day, cells were dislodged by trypsin and 40,000 cells/well were resuspended in a serum-free DMEM containing the second treatment of peptides and were added to the upper chamber, and 10% FBS containing media was added to the bottom chambers. After incubation for another 24 h, non-invasive cells on the upper surface of the membrane were carefully removed with a cotton swab; cells were fixed in 4% paraformaldehyde solution (Affymetrix USB) for 15 minutes followed by a PBS wash; the membrane insert was then fixed with ice-cold methanol for 20 minutes followed by staining with 0.25% crystal violet. The numbers of invaded cells were counted in random fields in Image J, and results were expressed as an average number of invaded cells compared with control.

[4] = system: MDA-MB-231 orthotopic tumors; test: Orthotopic breast cancer model in athymic nude mice; type: in vivo; details: for tumor growth: 30 mg/kg peritumoral every alternate day, 30 days; for decrease of tumor volume: 30 mg/kg peritumoral on alternate days, vs control
Experimental: Orthotropic Breast Cancer Models in Mice: All in vivo experiments were conducted on 6-8-week-old athymic nude mice (Charles River). MDA-M13-231 (1.5×10^6) cells were suspended in 50% Matrigel in DMEM high glucose (vol/vol) on ice for mammary fat pad injection. The control group received the same volume of matrigel (Corning Cat #356234) and media but no cells. […] Tumor volume was measured using a digital Vernier caliper on alternate days. The tumor volumes (mm3) were calculated using the following formula V=(W2×L)/2 (V, tumor volume: W, tumor width; L, tumor length). Mice were euthanized when rumors in the control group reached˜10% of body weight. At the end of the experiment, all animals were weighed, euthanized, and liver, lung, spleen, kidney brain, and tumors were harvested. The weights of tumors and organs were recorded.

[5] = system: phosphorylation of src at tyrosine 416; test: Western blot, phosphorylation of src; type: cell-based, human; details: MDA-MB-231, 48 h
Experimental: as §1

[6] = system: EMT genes (E-cadherin, N-Cadherin, SLUG, SNAIL, MMP-9, Zeb-1) in DU-145 prostate cancer cells; test: RT-qPCR of EMT genes in DU-145 cells; type: cell-based, human; details: DU-145, qPCR
Experimental: RT-qPCR Method: The changes in the mRNA levels of various genes in response to the peptide treatment in DU-145 cells were examined. Briefly, total RNA was purified using the TRIzol reagent (Invitrogen) according to the manufacturer's instructions. 1 μg of total RNA was reverse transcribed into cDNA using the Superscript-III First-Strand Synthesis kit (Invitrogen) following the manufacturer's protocol. RT-qPCR was performed with the SYBR Green Master Mix (Invitrogen) in a Realplex2 Mastercycler ep gradient S thermal cycler (Eppendorf). The PCR program followed for all the primers was an activation at 95° C. for 15 min, followed by 40 cycles of 95° C. for 30 sec, 54° C. for 1 min, and 72° C. for 45 sec. The reaction was finally put to hold at 4 C. The primers were synthesized by Integrated DNA Technologies (Coralville, IA and are described in Table 2. 18S was used as the reference genes for the mRNA levels. Fold-expression was calculated according to the ΔΔCt method.

[7] = system: phosphorylated cofilin (inactive cofilin); test: Western blot, phosphorylated cofilin; type: cell-based, human; details: whole cell lysates of MDA-MB-231 and DU-145 cells, 48 h
Experimental: as §1

[8] = system: MDA-MB-231 cells; test: Wound healing assay; type: cell-based, human; details: MDA-MB-231, dose-dependent, sub-IC50 concentrations, 18 h
Experimental: Wound healing assay: The wound-healing assay on highly metastatic MDA-MB-231 cells was performed to check the anti-migratory activity of the peptides. MDA-MB-231 cells were plated in a six-well tissue culture plate to form a sub-confluent cell monolayer. The monolayer was scraped with a sterile 200 μL pipette tip in the middle of the culture well to produce equal-sized wounds. Cell debris was removed and the scratched cell monolayer was supplemented with fresh media containing sub-IC 50 concentrations of MIEN1-derived peptide and its analogs. Wound areas were measured by ImageJ software after 18 h and were compared to control.

Substance	changes in the transcriptome [1]	phosphorylation of FAK at tyrosine 925 [2]	phosphorylation of FAK at tyrosine 925 ([2]; listed as LA31K)	number of invaded cells [3]	tumor growth [4]	decrease of tumor volume [4] [%]	response as per RECIST ([4]; 30 mg/kg, human tumor equivalent)	phosphorylation of src at tyrosine 416 [5]	phosphorylation of src at tyrosine 416 ([5]; listed as LA31K)	gene expression of SLUG, SNAIL, MMP 9, N-Cadherin and Zeb-1 [6]	gene expression of epithelial marker E-Cadherin [6]	phosphorylated cofilin [7]	number of migrated cells in the wound healing assay [8]
LAIAVK [LA3IK]	inhibited genes responsible for migration and cancer progression	inhibited	marked inhibition	considerable decrease in the number of invaded cells	decreased tumor growth significantly	75.39	partial response	inhibited	marked inhibition	significant decrease	concomitant increase	accumulation of phosphorylated cofilin	significantly reduced number of migrated cells
RPPCVIL [RP-7]		inhibited; also recorded: marked inhibition		considerable decrease in the number of invaded cells	decreased tumor growth significantly	37.43		inhibited; also recorded: marked inhibition		significant decrease	concomitant increase	accumulation of phosphorylated cofilin	significantly reduced number of migrated cells
